In ChEMBL document CHEMBL6134853, “Design, Synthesis, and Biological Evaluation of Pyrrolo[1,2-a]quinoxalin-4(5H)-one Derivatives as Potent and Orally Available Noncovalent Bruton's Tyrosine Kinase (BTK) Inhibitors” (J Med Chem, 2025):
Activity calls are given as the source filed them. The calls are words filed in the database; no cut-off is given here.

Key:
[1] = Toxicity in BALB/c mouse xenografted with human U-937 cells assessed as parenchymal injury in heart at 50 to 100 mg/kg, po administered once a day for 14 days by H and E staining based analysis; type: organism-based; conditions: in vivo, 336 h, dose 50-100 mg/kg, time 14 day
[2] = system: U-937; experiment: Antitumor activity against human U-937 cells xenografted in BALB/c mouse assessed as tumor growth inhibition at 50 mg/kg, po administered once a day for 14 days; type: functional; conditions: U-937, 336 h, time 14 day, read-out: TGI
[3] = system: U-937; experiment: Antitumor activity against human U-937 cells xenografted in BALB/c mouse assessed as tumor growth inhibition at 100 mg/kg, po administered once a day for 14 days; type: functional; conditions: U-937, 336 h, time 14 day, read-out: TGI
[4] = system: U-937; experiment: Antitumor activity against human U-937 cells xenografted in BALB/c mouse assessed as reduction in Ki67 expression in tumor at 50 mg/kg, po administered once a day for 14 days by immunohistochemical analysis; type: functional, organism-based; conditions: time 14.0 day
[5] = biological target: T1, Tyrosine-protein kinase BTK (Homo sapiens, UniProt Q06187); experiment: Inhibition of BTK phosphorylation at Y223 residue in anti-IgM induced human Ramos cells preincubated with compound for 4 hrs followed by anti-IgM induction and measured after 15 mins by Western blot analysis; type: cell-based; conditions: dose <= 1.0 µM, time 255.0 min
T1 sequence (Q06187 whole entry): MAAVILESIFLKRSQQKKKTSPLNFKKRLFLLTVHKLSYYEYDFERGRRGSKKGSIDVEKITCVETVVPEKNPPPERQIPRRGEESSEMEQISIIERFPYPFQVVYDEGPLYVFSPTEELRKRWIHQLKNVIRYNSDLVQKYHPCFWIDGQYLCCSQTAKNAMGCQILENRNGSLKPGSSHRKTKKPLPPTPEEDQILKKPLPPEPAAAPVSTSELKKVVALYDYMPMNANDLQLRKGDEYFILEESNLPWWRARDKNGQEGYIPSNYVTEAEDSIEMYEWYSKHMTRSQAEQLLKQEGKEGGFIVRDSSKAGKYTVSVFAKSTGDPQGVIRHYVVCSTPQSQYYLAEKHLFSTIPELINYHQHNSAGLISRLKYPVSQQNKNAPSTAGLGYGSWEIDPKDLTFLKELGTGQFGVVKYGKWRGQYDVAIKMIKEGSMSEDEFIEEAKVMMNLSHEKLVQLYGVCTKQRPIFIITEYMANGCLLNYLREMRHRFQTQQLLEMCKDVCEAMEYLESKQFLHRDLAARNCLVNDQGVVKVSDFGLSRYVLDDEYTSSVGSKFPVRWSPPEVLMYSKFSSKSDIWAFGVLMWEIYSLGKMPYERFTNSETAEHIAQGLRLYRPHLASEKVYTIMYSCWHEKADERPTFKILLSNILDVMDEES

[6] = biological target: Phosphatidylinositol 4-phosphate 5-kinase type-1 alpha (Homo sapiens) (UniProt Q99755); experiment: Inhibition of PIP5K1A (unknown origin) at 100 nM relative to control
Sequence of Phosphatidylinositol 4-phosphate 5-kinase type-1 alpha (Homo sapiens) (Q99755 whole entry): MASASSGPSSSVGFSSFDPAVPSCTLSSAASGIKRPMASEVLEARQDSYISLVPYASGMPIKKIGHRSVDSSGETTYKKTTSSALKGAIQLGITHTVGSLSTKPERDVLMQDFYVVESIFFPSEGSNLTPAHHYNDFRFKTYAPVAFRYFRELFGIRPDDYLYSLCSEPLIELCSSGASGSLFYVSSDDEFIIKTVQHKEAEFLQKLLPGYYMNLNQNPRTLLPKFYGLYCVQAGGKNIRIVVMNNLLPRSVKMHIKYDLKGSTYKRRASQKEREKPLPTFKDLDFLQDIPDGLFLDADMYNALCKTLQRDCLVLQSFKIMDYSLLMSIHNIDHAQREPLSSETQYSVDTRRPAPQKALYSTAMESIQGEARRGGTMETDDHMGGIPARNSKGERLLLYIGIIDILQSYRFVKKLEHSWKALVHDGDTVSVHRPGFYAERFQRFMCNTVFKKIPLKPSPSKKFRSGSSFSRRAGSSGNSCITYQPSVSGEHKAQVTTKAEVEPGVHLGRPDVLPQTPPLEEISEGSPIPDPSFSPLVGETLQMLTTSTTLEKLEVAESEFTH

[7] = Tmax in male Sprague-Dawley rat at 10 mg/kg, po measured up to 5 hrs by LC-MS/MS analysis; type: ADME, organism-based; conditions: in vivo
[8] = biological target: T2, Tyrosine-protein kinase Tec (Homo sapiens) (UniProt P42680); experiment: Inhibition of TEC (unknown origin) at 100 nM relative to control
T2 sequence (whole entry): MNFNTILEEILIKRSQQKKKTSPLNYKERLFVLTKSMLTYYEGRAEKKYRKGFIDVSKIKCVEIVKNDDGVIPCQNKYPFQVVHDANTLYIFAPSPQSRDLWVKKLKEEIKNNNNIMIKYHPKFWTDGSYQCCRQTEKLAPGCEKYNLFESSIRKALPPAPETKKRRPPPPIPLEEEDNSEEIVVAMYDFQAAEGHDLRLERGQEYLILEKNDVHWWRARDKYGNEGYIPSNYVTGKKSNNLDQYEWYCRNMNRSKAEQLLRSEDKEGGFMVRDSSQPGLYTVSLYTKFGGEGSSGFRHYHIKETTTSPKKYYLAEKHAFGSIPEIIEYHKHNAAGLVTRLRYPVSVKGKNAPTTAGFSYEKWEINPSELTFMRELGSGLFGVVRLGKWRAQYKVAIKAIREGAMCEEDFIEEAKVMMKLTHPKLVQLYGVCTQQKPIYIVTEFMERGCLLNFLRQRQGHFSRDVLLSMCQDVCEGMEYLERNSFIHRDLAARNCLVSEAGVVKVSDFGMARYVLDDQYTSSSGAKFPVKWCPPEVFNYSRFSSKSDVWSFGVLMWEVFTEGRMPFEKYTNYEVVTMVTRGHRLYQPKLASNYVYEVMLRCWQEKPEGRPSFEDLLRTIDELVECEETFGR

[9] = Toxicity in BALB/c mouse xenografted with human U-937 cells assessed as inflammatory infiltration in spleen at 50 to 100 mg/kg, po administered once a day for 14 days by H and E staining based analysis; type: organism-based; conditions: in vivo, 336 h, dose 50-100 mg/kg, time 14 day
[10] = biological target: T3, Serine/threonine-protein kinase RIO3 (Homo sapiens) (UniProt O14730); experiment: Inhibition of RIOK3 (unknown origin) at 100 nM relative to control
T3 sequence (whole entry): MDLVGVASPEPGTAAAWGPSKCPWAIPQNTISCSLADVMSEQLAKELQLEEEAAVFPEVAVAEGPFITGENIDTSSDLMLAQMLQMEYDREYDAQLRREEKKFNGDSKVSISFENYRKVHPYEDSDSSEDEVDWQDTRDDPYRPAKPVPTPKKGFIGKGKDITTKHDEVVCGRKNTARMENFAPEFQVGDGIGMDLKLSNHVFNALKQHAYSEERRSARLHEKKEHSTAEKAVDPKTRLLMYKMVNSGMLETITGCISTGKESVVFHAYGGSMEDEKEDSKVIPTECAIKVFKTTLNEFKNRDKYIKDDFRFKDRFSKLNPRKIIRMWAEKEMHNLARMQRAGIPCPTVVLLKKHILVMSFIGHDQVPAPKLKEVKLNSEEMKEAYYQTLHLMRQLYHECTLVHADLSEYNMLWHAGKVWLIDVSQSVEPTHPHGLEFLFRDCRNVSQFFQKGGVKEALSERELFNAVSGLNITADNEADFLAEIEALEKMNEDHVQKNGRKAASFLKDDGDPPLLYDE

[11] = system: U-937; experiment: Induction of apoptosis in human U-937 cells incubated for 2 days by Annexin V/PI staining based flow cytometry analysis; type: functional, cell-based; conditions: dose 1-10 µM, time 2.0 day
[12] = MRT (0 to 5 hrs) in male Sprague-Dawley rat at 10 mg/kg, po measured up to 5 hrs by LC-MS/MS analysis; type: ADME, organism-based; conditions: in vivo
[13] = biological target: T1, Tyrosine-protein kinase BTK; experiment: Inhibition of BTK (unknown origin) by HTRF analysis
[14] = system: Ramos; experiment: Antiproliferative activity against human Ramos cells expressing BTK assessed as inhibition of cell proliferation incubated for 48 hrs by CCK-8 assay; type: functional, cell-based
[15] = Toxicity in BALB/c mouse xenografted with human U-937 cells assessed as parenchymal injury in liver at 50 to 100 mg/kg, po administered once a day for 14 days by H and E staining based analysis; type: organism-based; conditions: in vivo, 336 h, dose 50-100 mg/kg, time 14 day
[16] = system: U-937; experiment: Antitumor activity against human U-937 cells xenografted in po dosed BALB/c mouse assessed as tumor growth inhibition administered once a day for 14 days; type: functional, organism-based; conditions: dose 50-100 mg/kg, time 14.0 day
[17] = biological target: T1, Tyrosine-protein kinase BTK; experiment: Inhibition of BTK (unknown origin) at 100 nM relative to control
[18] = Toxicity in BALB/c mouse xenografted with human U-937 cells assessed as parenchymal injury in lung at 50 to 100 mg/kg, po administered once a day for 14 days by H and E staining based analysis; type: organism-based; conditions: in vivo, 336 h, dose 50-100 mg/kg, time 14 day

inhibition [5]: Dose-dependent-effect | inhibition [6]: Active | Tmax [7]: 30 min | inhibition [8]: Active | inhibition [10]: Active | MRT last at 5 h [12]: 88.8 min | IC50 [13]: 0.0216 µM | IC50 [14]: 8 µM | inhibition [17]: Active
SMILES: CC(C)(O)c1ccc2c(c1)[nH]c(=O)c1ccc(-c3cccc(-n4c(=O)[nH]c5c(F)cccc5c4=O)c3F)n12
Activity [1]: Non-toxic | inhibition in vivo at 50 mg/kg [2]: 64.4% | inhibition in vivo at 100 mg/kg [3]: 74.9% | Activity [4]: Active | Activity [9]: Non-toxic | Activity [11]: Dose-dependent-effect | Activity [15]: Non-toxic | Activity [16]: Dose-dependent-effect | Activity [18]: Non-toxic
